In patent US12422438B2, “Means and methods for single molecule peptide sequencing” (VIB VZW, priority 2017, dated 2025):

T1: T. aquaticus aminopeptidase T (Thermus aquaticus, UniProt P23341)
T1 construct: 6xHis (C); made in house; host or cells: E. coli BL21(DE3), pET24b(+)
T1 sequence (P23341 with tags, fused parts or gaps): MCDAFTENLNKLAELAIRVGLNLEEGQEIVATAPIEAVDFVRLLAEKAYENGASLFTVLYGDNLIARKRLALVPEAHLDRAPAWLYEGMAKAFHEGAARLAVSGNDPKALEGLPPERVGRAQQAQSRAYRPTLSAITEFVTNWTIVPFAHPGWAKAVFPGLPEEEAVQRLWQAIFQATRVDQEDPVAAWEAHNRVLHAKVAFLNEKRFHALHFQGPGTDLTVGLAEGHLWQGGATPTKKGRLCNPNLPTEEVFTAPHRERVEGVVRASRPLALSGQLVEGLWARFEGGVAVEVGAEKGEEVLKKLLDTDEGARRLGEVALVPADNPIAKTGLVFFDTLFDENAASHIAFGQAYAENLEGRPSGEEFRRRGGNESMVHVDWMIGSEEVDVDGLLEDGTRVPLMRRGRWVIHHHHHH


What was measured:
[1] = target: T1, T. aquaticus aminopeptidase T; type: biochemical; settings: 40° C.; for Km / kcat: PBS; for Km: enzyme 2.0625 μM, substrate 0.0625-2 mM, Lineweaver-Burke plot; for kcat: kcat=Vmax/[E]; for on-time (min) / on-time (s): calculated as 1/kcat
Protocol: (§1) The kinetic parameters from T. aquaticus aminopeptidase T for cleaving different amino acid substrates was determined with a p-nitroanilide assay. Substrates consist of an N-terminal amino acid with a p-nitroanilide attached to its C-terminus. Upon amino acid cleavage, the free nitroanilide can be monitored by measuring the absorbance at 405 nm. T. aquaticus aminopeptidase T as depicted in SEQ ID No 8 was added in a concentration of 2.0625 μM (in PBS) to different concentrations of amino acid p-nitroanilide substrate (0.0625, 0.125, 0.25, 0.5, 1 and 2 mM in PBS). Subsequently p-nitroanilide release was continuously measured at 40° C. with a FLUOstar Omega microplate reader (MBG LabTech). From this, the initial velocity of the reaction at each substrate concentration was derived (v0). For each amino acid, a Lineweaver-Burke plot was generated from which the reaction Vmax and enzyme-substrate KM was determined. The turnover number, kcat, was calculated from the Vmax and the enzyme concentration (kcat=Vmax/[E]). The enzyme on-time value was then calculated by taking the reciprocal from the kcat value. The “on-time” values as shown in Table 1 are calculated as 1/kcat and as such is the overall time needed for an enzyme solution on the peptide until catalysis occurs.
(§2) The assays were performed at 40° C. below the enzyme's temperature optimum. Working more closely to the optimal temperature of 70° C. speeds up the reaction speed (kcat and enzyme on-time). […] The results as shown here not only validate the utility of the aminopeptidase as disclosed herein but also underpin and substantiate the methods and uses disclosed in current application.

[2] = target: T1, T. aquaticus aminopeptidase T; test: Aminopeptidase assay with different amino acid p-nitroanilide substrates at 40° C. and 80° C.; type: biochemical; settings: 2 h, PBS, substrate 1.5 mM
Protocol: FIG. 11. Aminopeptidase assay with different amino acid p-nitroanilide substrates. Enzyme and substrate (1.5 mM) were incubated for 2 h at 40° C. or 80° C. in PBS, after which the released p-nitroanilide was quantified by measuring the absorbance at 405 nm.
As described herein and in line with the invention described in current application, the activity differs between different amino acids. At 80° C., the panel of amino acid substrates can be roughly divided in fast-cleaved (L, M, Y, R, F) and slow-cleaved (D, P) substrates. However, at 40° C. it seems like the panel is divided in fast-cleaved (Y, R) and slow-cleaved (D, P), and substrates that lie in between (L, M, F). […] Finally, TagAPT is not only active in the p-nitroanilide assay. […] The N-terminal amino acid from peptides with proline at the second position is not easily cleaved since peptide bonds adjacent to the amino acid proline are resistant to cleavage by most peptidases (Iyver et al. 2015 FEBS Open Bio. 2015 Apr. 2; 5:292-302). In contrast to what Is stated in Minagawa et al (1988 Agricultural and Biological Chemistry 52:1755-1763) we show here that T. aquaticus aminopeptidase T can cleave N-terminal amino acids even when proline is at the second position. This surprising finding greatly enhances the generic use of Tag-APT in the method and uses disclosed in current application and in single molecule peptide sequencing in general.

[3] = Spontaneous Edman degradation (SPITC-induced cleavage) of amino acid p-nitroanilide substrates; settings: 30 min at 40° C., 300 mM triethanolamine in 50% acetonitrile (pH 9)
Protocol: FIG. 16. Spontaneous Edman degradation of different amino acid p-nitroanilide substrates. A. Sulfophenyl isothiocyanate (SPITC, 15 mM) and substrate (1.5 mM) were incubated for 30 min at 40° C. in 300 mM triethanolamine in 50% ACN, after which the released p-nitroanilide was quantified by measuring the absorbance at 405 nm. B. Time-kinetic measurement of SPITC-induced amino acid p-nitroanilide substrate cleavage.
Importantly, this spontaneous cleavage activity is also observed under conditions that are not typically used during the cleavage step in the classic Edman degradation reaction. In classic Edman degradation. ITC coupling is achieved under mild alkaline conditions (pyridine, trimethylamine, N-methylpiperidine) and amino acid cleavage under acidic conditions (trifluoroacetic acid). Here both ITC coupling and amino acid cleavage is achieved under mild alkaline conditions (triethanolamine).

[4] = substrate: CC(C)C[C@H](N)C(=O)Nc1ccc([N+](=O)[O-])cc1; test: purified protein, by the assay type; type: biochemical; settings: other: 40° C., PBS, enzyme 2.0625 μM, substrate 0.0625-2 mM, Lineweaver-Burke plot
Protocol: as §1, §2

| Molecule | Km [1] | kcat [1] | on-time (min) [1] | on-time (s) [1] | cleavage speed category of substrate ([2]; 40° C.) | cleavage speed category of substrate ([2]; 80° C.) | cleavage speed category of substrate (endpoint activity measurement) [3] | Km [4] | kcat [4] | kcat/Km [4] |
| --- | --- | --- | --- | --- | --- | --- | --- | --- | --- | --- |
| C[C@H](N)C(=O)Nc1ccc([N+](=O)[O-])cc1 [Ala] | 736 µM | 0.01167 s⁻¹ | 1.4 min | 86 s | – | – | – | – | – | – |
| NC(N)=NCCC[C@H](N)C(=O)Nc1ccc([N+](=O)[O-])cc1 [Arg] | 415 µM | 0.01638 s⁻¹ | 1.0 min | 61 s | fast-cleaved | fast-cleaved | fast-cleaved | – | – | – |
| N[C@@H](CC(=O)O)C(=O)Nc1ccc([N+](=O)[O-])cc1 [D] | – | – | – | – | slow-cleaved | slow-cleaved | slow-cleaved | – | – | – |
| N[C@@H](Cc1ccccc1)C(=O)Nc1ccc([N+](=O)[O-])cc1 [F] | – | – | – | – | in between | fast-cleaved | fast-cleaved | – | – | – |
| NCC(=O)Nc1ccc([N+](=O)[O-])cc1 [Gly] | 765 µM | 0.00307 s⁻¹ | 5.4 min | 326 s | – | – | – | – | – | – |
| CC(C)C[C@H](N)C(=O)Nc1ccc([N+](=O)[O-])cc1 [Leu, L-leucine-p-nitroanilide] | – | – | 6.5 min | 390 s | in between | fast-cleaved | fast-cleaved | – | – | – |
| NCCCC[C@H](N)C(=O)Nc1ccc([N+](=O)[O-])cc1 [Lys] | 193 µM | 0.00148 s⁻¹ | 11.3 min | 677 s | – | – | – | – | – | – |
| CSCC[C@H](N)C(=O)Nc1ccc([N+](=O)[O-])cc1 [Met] | 99 µM | 0.00471 s⁻¹ | 3.5 min | 212 s | in between | fast-cleaved | fast-cleaved | – | – | – |
| O=C(Nc1ccc([N+](=O)[O-])cc1)[C@@H]1CCCN1 [Pro] | 546 µM | 0.00198 s⁻¹ | 8.4 min | 504 s | slow-cleaved | slow-cleaved | slow-cleaved | – | – | – |
| N[C@@H](Cc1ccc(O)cc1)C(=O)Nc1ccc([N+](=O)[O-])cc1 [Tyr] | 211 µM | 0.00707 s⁻¹ | 2.4 min | 142 s | fast-cleaved | fast-cleaved | fast-cleaved | – | – | – |
| CC(C)[C@H](N)C(=O)Nc1ccc([N+](=O)[O-])cc1 [Val] | 192 µM | 0.00138 s⁻¹ | 12.1 min | 727 s | – | – | – | – | – | – |
| T. aquaticus aminopeptidase T (Thermus aquaticus) (protein, 6xHis (C); made in house; host or cells: E. coli BL21(DE3), pET24b(+)) MCDAFTENLNKLAELAIRVGLNLEEGQEIVATAPIEAVDFVRLLAEKAYENGASLFTVLYGDNLIARKRLALVPEAHLDRAPAWLYEGMAKAFHEGAARLAVSGNDPKALEGLPPERVGRAQQAQSRAYRPTLSAITEFVTNWTIVPFAHPGWAKAVFPGLPEEEAVQRLWQAIFQATRVDQEDPVAAWEAHNRVLHAKVAFLNEKRFHALHFQGPGTDLTVGLAEGHLWQGGATPTKKGRLCNPNLPTEEVFTAPHRERVEGVVRASRPLALSGQLVEGLWARFEGGVAVEVGAEKGEEVLKKLLDTDEGARRLGEVALVPADNPIAKTGLVFFDTLFDENAASHIAFGQAYAENLEGRPSGEEFRRRGGNESMVHVDWMIGSEEVDVDGLLEDGTRVPLMRRGRWVIHHHHHH | – | – | – | – | – | – | – | 0.092 mM | 0.00256 s⁻¹ | 27.9 M⁻¹ s⁻¹ |
